Test results as given in patent publication US9040571B2, “Veterinary formulation for administration of a water-insoluble drug to a target animal through a water distribution system” (Elanco Animal Health Ireland Limited, priority 1999, dated 2015).

Experiment: Particle size distribution by static light scattering, storage stability
Format: physicochemical
Conditions: 45 mm lens, tap-water
Description: Additionally, the particle size distribution of the original suspoemulsion was determined by static light scattering measurements using a 45 mm lens and tap-water. The stability of the undiluted suspoemulsion as measured by static light scattering measurements was followed over a period of 8 months. The results from the Turbiscan scan measurements were evaluated graphically. […] This implies that the diluted product stays stable under static conditions, like for example in the dosage tank of an automatic injection system.

COC(=O)Nc1nc2cc(C(=O)c3ccc(F)cc3)ccc2[nH]1 [Fb powder, flubendazole]
particle size distribution at t = 0, (D[3, 2] in μm): 1.53 μm
